Source: patent US8153795B2, “Substituted 1-oxa-3,8-diazaspiro[4.5]-decan-2-one-compounds and the use thereof for producing drugs” (Gruenenthal GmbH, priority 2005, dated 2012)

target: T1, 5-HT transporter (Rattus norvegicus, UniProt P31652); experiment: 5-HT uptake inhibition in rat brain synaptosomes (medulla and pons), [3H]-5-HT; type: biochemical
T1 construct: from tissue; host or cells: rat brain synaptosomes (P2 fraction) from medulla and pons
Description: a) Method for Determining Noradrenalin and 5-HT Uptake Inhibition:
Synaptosomes from rat brain regions are freshly isolated for in vitro studies, as described in the publication “The isolation of nerve endings from brain” by E. G. Gray and V. P. Whittaker, J. Anatomy 96, pages 79-88, 1962. The corresponding literature description is hereby introduced as a reference and is deemed to be part of the disclosure.
The tissue (hypothalamus for the determination of noradrenalin uptake inhibition and medulla and pons for the determination of 5-HT uptake inhibition) is homogenised in ice-cooled 0.32 M sucrose (100 mg of tissue/1 mL) in a glass homogeniser with Teflon pestle using five complete up and down strokes at 840 revolutions/minute.
The homogenate is centrifuged at 4° C. for 10 minutes at 1000 g. After subsequent centrifugation at 17000 g for 55 minutes, the synaptosomes (P2 fraction) are obtained, which are resuspended in 0.32 M […] (0.5 mL/100 mg of original weight).
The particular uptake is measured in a 96-well microtitre plate. The volume is 250 μl and the incubation proceeds at room temperature (approx. 20-25° C.) under an O2 atmosphere.
The incubation time is 7.5 minutes for [^3H]-NA and 5 minutes for [^3H]-5-HT. The 96 samples are then filtered through a Unifilter GF/B® microtitre plate (Packard) and washed with 200 mL of incubated buffer using a “Brabdel MPXRI-96T Cell-Harvester”. The Unifilter GF/B plate is dried for 1 hour at 55° C. The plate is then sealed with a Back Seal® (Packard) and 35 μl of scintillation fluid are added per well (Ultima Gold®, Packard). After sealing with a top Seal® (Packard) and establishing an equilibrium (around 5 hours), radioactivity is determined in a “Trilux 1450 Microbeta” (Wallac).
The quantity of protein used in the above determination corresponds to the values known from the literature, as for example described in “Protein measurement with the folin phenol reagent”, Lowry et al., J. Biol. Chem., 193, 265-275, 1951.
A detailed description of the method may additionally be found in the literature, for example in M. Ch. Frink, H.-H. Hennies, W. Engelberger, M. Haurand and B. Wilffert (1996) Arzneim.-Forsch./Drug Res. 46 (III), 11, 1029-1036.

T1 sequence (P31652 whole entry): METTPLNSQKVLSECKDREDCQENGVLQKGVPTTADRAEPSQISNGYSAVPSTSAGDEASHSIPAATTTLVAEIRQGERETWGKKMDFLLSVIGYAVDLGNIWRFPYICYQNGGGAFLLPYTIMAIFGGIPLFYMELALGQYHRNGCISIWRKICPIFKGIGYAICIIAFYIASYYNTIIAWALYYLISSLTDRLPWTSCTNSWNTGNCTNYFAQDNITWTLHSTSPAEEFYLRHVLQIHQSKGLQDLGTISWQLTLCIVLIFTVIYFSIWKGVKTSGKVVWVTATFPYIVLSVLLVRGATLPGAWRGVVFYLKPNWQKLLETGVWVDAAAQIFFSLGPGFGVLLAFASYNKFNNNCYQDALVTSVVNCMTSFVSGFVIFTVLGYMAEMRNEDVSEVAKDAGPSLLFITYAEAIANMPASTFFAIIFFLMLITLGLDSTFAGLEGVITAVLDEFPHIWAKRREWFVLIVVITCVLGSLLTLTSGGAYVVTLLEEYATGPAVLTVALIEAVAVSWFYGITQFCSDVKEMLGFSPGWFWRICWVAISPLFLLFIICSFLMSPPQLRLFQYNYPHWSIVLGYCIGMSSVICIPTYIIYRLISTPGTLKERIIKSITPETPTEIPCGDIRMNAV

| SMILES | inhibition at 10 µM [%] |
| --- | --- |
| Cc1ccc(CN2CC3(CCN(C(=S)Nc4c(F)c(F)c(F)c(F)c4F)CC3)OC2=O)cc1 [Example 1, 3-(4-methylbenzyl)-2-oxo-1-oxa-3,8-diazaspiro[4.5]decane-8-carbothioic acid pentafluorophenylamide] | 66 |
| O=C1OC2(CCN(C(=S)NCc3ccccc3)CC2)CN1Cc1ccc(C(F)(F)F)cc1 [Example 3, 2-oxo-3-(4-trifluoromethylbenzyl)-1-oxa-3,8-diazaspiro[4.5]decane-8-carbothioic acid benzylamide] | 69 |
| Cc1cc(C)cc(CN2CC3(CCN(C(=S)NCC4CCCO4)CC3)OC2=O)c1 (centres unmarked) [Example 4, 3-(3,5-dimethylbenzyl)-2-oxo-1-oxa-3,8-diazaspiro[4.5]decane-8-carbothioic acid (tetrahydrofuran-2-ylmethyl)amide] | 76 |
| O=C1OC2(CCN(C(=S)NCc3ccccc3)CC2)CN1Cc1ccc(F)c(F)c1 [Example 11, 3-(3,4-difluorobenzyl)-2-oxo-1-oxa-3,8-diazaspiro[4.5]decane-8-carbothioic acid benzylamide] | 58 |
| CC(NC(=S)N1CCC2(CC1)CN(Cc1ccccc1-c1ccccc1)C(=O)O2)c1ccccc1 (centres unmarked) [Example 12, 3-biphenyl-2-ylmethyl-2-oxo-1-oxa-3,8-diazaspiro[4.5]decane-8-carbothioic acid (1-phenylethyl)amide] | 60 |
| O=C1OC2(CCN(C(=S)NCc3ccccc3)CC2)CN1Cc1cccc(Br)c1 [Example 16, 3-(3-bromobenzyl)-2-oxo-1-oxa-3,8-diazaspiro[4.5]decane-8-carbothioic acid benzylamide] | 54 |
| COc1ccc([N+](=O)[O-])cc1CN1CC2(CCN(C(=S)NCC3CCCCC3)CC2)OC1=O [Example 21, 3-(2-methoxy-5-nitrobenzyl)-2-oxo-1-oxa-3,8-diazaspiro[4.5]decane-8-carbothioic acid cyclohexylmethylamide] | 55 |
| N#Cc1cccc(CN2CC3(CCN(C(=S)NCc4ccc(Cl)cc4)CC3)OC2=O)c1 [Example 22, 3-(3-cyanobenzyl)-2-oxo-1-oxa-3,8-diazaspiro[4.5]decane-8-carbothioic acid 4-chlorobenzylamide] | 48 |
| COc1ccc([N+](=O)[O-])cc1CN1CC2(CCN(C(=S)NCc3ccccc3)CC2)OC1=O [Example 23, 3-(2-methoxy-5-nitrobenzyl)-2-oxo-1-oxa-3,8-diazaspiro[4.5]decane-8-carbothioic acid benzylamide] | 60 |
| O=C(Nc1cc(Cl)ccc1Cl)N1CCC2(CC1)CN(Cc1ccccc1-c1ccccc1)C(=O)O2 [Example 25, 3-biphenyl-2-ylmethyl-2-oxo-1-oxa-3,8-diazaspiro[4.5]decane-8-carboxylic acid (2,5-dichlorophenyl)amide] | 53 |
| COc1ccc([N+](=O)[O-])cc1CN1CC2(CCN(C(=O)Nc3cc(F)ccc3F)CC2)OC1=O [Example 26, 3-(2-methoxy-5-nitrobenzyl)-2-oxo-1-oxa-3,8-diazaspiro[4.5]decane-8-carboxylic acid (2,5-difluorophenyl)amide] | 70 |
| CCOC(=O)c1ccc(NC(=O)N2CCC3(CC2)CN(Cc2ccc4ccccc4c2)C(=O)O3)cc1 [Example 30, 4-[(3-naphthalen-2-ylmethyl-2-oxo-1-oxa-3,8-diazaspiro[4.5]decane-8-carbonyl)amino]benzoic acid ethyl ester] | 65 |
| N#Cc1ccccc1CN1CC2(CCN(C(=O)Nc3cc(F)ccc3F)CC2)OC1=O [Example 32, 3-(2-cyanobenzyl)-2-oxo-1-oxa-3,8-diazaspiro[4.5]decane-8-carboxylic acid (2,5-difluorophenyl)amide] | 56 |
| N#Cc1cccc(NC(=O)N2CCC3(CC2)CN(Cc2ccc(SC(F)(F)F)cc2)C(=O)O3)c1 [Example 38, 2-oxo-3-(4-trifluoromethylsulfanylbenzyl)-1-oxa-3,8-diazaspiro[4.5]decane-8-carboxylic acid (3-cyanophenyl)amide] | 52 |
| Cc1ccc(NC(=O)N2CCC3(CC2)CN(Cc2ccc(SC(F)(F)F)cc2)C(=O)O3)cc1[N+](=O)[O-] [Example 40, 2-oxo-3-(4-trifluoromethylsulfanylbenzyl)-1-oxa-3,8-diazaspiro[4.5]decane-8-carboxylic acid (4-methyl-3-nitrophenyl)amide] | 54 |
| CCCCOc1ccc(NC(=O)N2CCC3(CC2)CN(Cc2ccc(I)cc2)C(=O)O3)cc1 [Example 41, 3-(4-iodobenzyl)-2-oxo-1-oxa-3,8-diazaspiro[4.5]decane-8-carboxylic acid (4-butoxyphenyl)amide] | 49 |
| CC(NC(=O)N1CCC2(CC1)CN(Cc1ccccc1)C(=O)O2)c1ccccc1 (centres unmarked) [Example 43, 3-benzyl-2-oxo-1-oxa-3,8-diazaspiro[4.5]decane-8-carboxylic acid (1-phenylethyl)amide] | 49 |
| Cc1ccc(CN2CC3(CCN(C(=O)NCCc4ccccc4)CC3)OC2=O)cc1 [Example 45, 3-(4-methylbenzyl)-2-oxo-1-oxa-3,8-diazaspiro[4.5]decane-8-carboxylic acid phenethylamide] | 51 |
| COc1cccc(NC(=O)N2CCC3(CC2)CN(Cc2ccccc2C(F)(F)F)C(=O)O3)c1 [Example 46, 2-oxo-3-(2-trifluoromethylbenzyl)-1-oxa-3,8-diazaspiro[4.5]decane-8-carboxylic acid (3-methoxyphenyl)amide] | 43 |
| COc1ccc(NC(=O)N2CCC3(CC2)CN(Cc2ccc(C#N)cc2)C(=O)O3)cc1 [Example 47, 3-(4-cyanobenzyl)-2-oxo-1-oxa-3,8-diazaspiro[4.5]decane-8-carboxylic acid (4-methoxyphenyl)amide] | 49 |
| CC(NC(=O)N1CCC2(CC1)CN(Cc1ccc(C(F)(F)F)cc1)C(=O)O2)c1cccc2ccccc12 (centres unmarked) [Example 48, 2-oxo-3-(4-trifluoromethylbenzyl)-1-oxa-3,8-diazaspiro[4.5]decane-8-carboxylic acid (1-naphthalen-1-yl-ethyl)amide] | 43 |
| Cc1ccc(NC(=O)N2CCC3(CC2)CN(Cc2ccc(I)cc2)C(=O)O3)cc1[N+](=O)[O-] [Example 50, 3-(4-iodobenzyl)-2-oxo-1-oxa-3,8-diazaspiro[4.5]decane-8-carboxylic acid (4-methyl-3-nitrophenyl)amide] | 64 |
| COc1ccc([N+](=O)[O-])cc1CN1CC2(CCN(C(=O)Nc3cccc(C#N)c3)CC2)OC1=O [Example 51, 3-(2-methoxy-5-nitrobenzyl)-2-oxo-1-oxa-3,8-diazaspiro[4.5]decane-8-carboxylic acid (3-cyanophenyl)amide] | 89 |
| CC(NC(=O)N1CCC2(CC1)CN(Cc1ccccc1C(F)(F)F)C(=O)O2)c1cccc2ccccc12 (centres unmarked) [Example 54, 2-oxo-3-(2-trifluoromethylbenzyl)-1-oxa-3,8-diazaspiro[4.5]decane-8-carboxylic acid (1-naphthalen-1-yl-ethyl)amide] | 75 |
| COc1ccc(OC)c(NC(=O)N2CCC3(CC2)CN(Cc2ccc4ccccc4c2)C(=O)O3)c1 [Example 55, 3-naphthalen-2-ylmethyl-2-oxo-1-oxa-3,8-diazaspiro[4.5]decane-8-carboxylic acid (2,5-dimethoxyphenyl)amide] | 61 |
| CC(=O)c1cccc(NC(=O)N2CCC3(CC2)CN(Cc2ccc(C#N)cc2)C(=O)O3)c1 [Example 56, 3-(4-cyanobenzyl)-2-oxo-1-oxa-3,8-diazaspiro[4.5]decane-8-carboxylic acid (3-acetylphenyl)amide] | 60 |
| COc1ccc(Cl)cc1NC(=O)N1CCC2(CC1)CN(Cc1ccc(C#N)cc1)C(=O)O2 [Example 58, 3-(4-cyanobenzyl)-2-oxo-1-oxa-3,8-diazaspiro[4.5]decane-8-carboxylic acid (5-chloro-2-methoxyphenyl)amide] | 49 |
| CCOC(=O)c1cccc(NC(=O)N2CCC3(CC2)CN(Cc2ccccc2C(F)(F)F)C(=O)O3)c1 [Example 59, 3-{[2-oxo-3-(2-trifluoromethylbenzyl)-1-oxa-3,8-diazaspiro[4.5]decane-8-carbonyl]amino}benzoic acid ethyl ester] | 47 |
| CC(C)(C)OC(=O)NC(Cc1c[nH]c2ccccc12)C(=O)N1CCC2(CC1)CN(Cc1cccc(Br)c1)C(=O)O2 (centres unmarked) [Example 66, [2-[3-(3-bromobenzyl)-2-oxo-1-oxa-3,8-diazaspiro[4.5]dec-8-yl]-1-(1H-indol-3-ylmethyl)-2-oxoethyl]carbamic acid tert-butyl ester] | 53 |
